Results on 12 substances are retold here after patent US10532068B2, “Dual molecular delivery of oligonucleotides and peptide containing conjugates” (Merck Sharp & Dohme Corp., priority 2013, dated 2020).

In this assay the test system is CTNNB1. The experiment in a line: In vivo evaluation in mice: liver mRNA knockdown measurement (TaqMan qPCR). Set-up: species or system CD-1 mice. How it is done: Female CD-1 mice (Charles River) were injected in accordance with either a sequential dosing paradigm or a co-dosing paradigm. In the sequential dosing paradigm, the targeted siRNA (SCE) is dosed at t=0 and the targeted peptide is separately dosed up to 2 hr before the SCE (−2 hr) or up to 24 hr after the SCE (+24 hr). In the co-dosing paradigm, the SCE and peptides are co-formulated and dosed together in the same formulation as a single injection at t=0. The mice were dosed either by intravenous (i.v.) or subcutaneous (s.c.) injection of SCE and peptide. For the i.v. doses, the compounds were injected into the tail vein of the mice. For the s.c. doses, the compounds were injected in the subcutaneous space on the back of the mouse between the shoulder blades. At the indicated harvest times (measured from t=0 when the siRNA was dosed, regardless of when the peptide was dosed), the animals were sacrificed and 3 mm liver punches were collected, preserved in RNAlater (Ambion), and stored at 4° C. Separate 5 mm liver punches were collected, placed in 96-well plates, frozen on dry ice, and stored at −80° C. until use.
The 3 mm liver punches were removed from RNAlater and homogenized in Trizol (Invitrogen) using a bead mill tissue lyser (Qiagen); disruption was performed for two 5-minute cycles at 30 Hz. RNA extraction was performed using 1-bromo-2-chloropropane (Acros Organics) and total RNA was isolated from the aqueous phase using the MagMax RNA isolation method (Ambion). […] TaqMan qPCR analysis was performed with an ABI 7900 Real-Time PCR System using TaqMan Fast Advanced Master Mix (Applied Biosystems). All TaqMan probes and primers for CTNNB1 and PPIB (housekeeping gene) were purchased from Applied Biosystems as pre-validated gene expression assays. Results are calculated by the comparative Ct method, where the difference between the CTNNB1 Ct value and the PPIB Ct value (ΔCt) is calculated and then further normalized relative to the PBS control by taking a second difference (ΔΔCt), as described previously (1).
A general note: In qPCR the cycle at which signal appears reflects the starting amount.

Where [1] appears, read: Table 6, mice, sequential, peptide IV 15 min after siRNA IV, TGN-L-siRNA-III 0.25 mg/kg, peptide 2 mg/kg.
[2] abbreviates: Table 6, mice, sequential, peptide IV 15 min after siRNA IV, TGN-L-siRNA-III 0.25 mg/kg, peptide 10 mg/kg.

Where no end group is shown, it is not given here. [ ]: non-standard residue; d: D form. S‑S‑TGN = not defined here; TGN = not defined here

For the substance “TGN-CDM-SEQ ID NO: 1801 (D): TGN-CDM peptide, peptide glfgeieelieeglenlidwgng; C8 made from same all-D sequence (SEQ ID NO: 1074) (G[dL][dF]G[dE][dI][dE][dE][dL][dI][dE][dE]G[dL][dE][dN][dL][dI][dD][dW]G[dN]G; also: TGN-CDM conjugate; listed as Homo sapiens)”, the “In vivo mRNA knockdown (%)” value (Table 8 (disulfide vs. ECL vs. CDM linkage), TGN-L-siRNA-II 0.25 mg/kg, targeted peptide 1 mg/kg) is given as 23.0% and the “In vivo mRNA knockdown (%)” value (Table 8 (disulfide vs. ECL vs. CDM linkage), TGN-L-siRNA-II 0.25 mg/kg, targeted peptide 3 mg/kg) is recorded as 24.9%. With “TGN-S-S-SEQ ID NO: 935 (L) (C(TGN)GFFGEIAELIWEGLKNLIDWWNG; reading uncertain; also: TGN attached via disulfide (S-S); listed as Homo sapiens)”, the “In vivo mRNA knockdown (%)” value is, setting by setting: under setting [1], 17%; under setting [2], 23%. Regarding “TGN-S-S-SEQ ID NO: 1248 (L) (C(TGN)FLEELWELLEHLL; reading uncertain; listed as Homo sapiens)”, the “In vivo mRNA knockdown (%)” value (Table 6, mice, sequential, peptide IV 15 min after siRNA IV, TGN-L-siRNA-III 0.5 mg/kg, peptide 5 mg/kg) worked out at 24%.

In the case of “TGN-S-S-SEQ ID NO: 1403 (L) (C(TGN)GLLEEIEELLEEGLENLIDWWNS; reading uncertain; listed as Homo sapiens)”, the “In vivo mRNA knockdown (%)” value stood at 22% under setting [1] and 24% under setting [2]. In the case of “TGN-S-S-SEQ ID NO: 1489 (D) ([dC](S‑S‑TGN)[dL][dE][dL][dW][dL][dE][dH][dL][dF][dL][dE][dL][dE]; reading uncertain; also: Cys disulfide-linked to TGN peptide; listed as Homo sapiens)”, the “In vivo mRNA knockdown (%)” value reads like this: (Table 6, mice, sequential, peptide IV 15 min after siRNA IV, TGN-L-siRNA-III 0.5 mg/kg, peptide 2 mg/kg) 37%; (Table 6, mice, sequential, peptide IV 15 min after siRNA IV, TGN-L-siRNA-III 0.5 mg/kg, peptide 10 mg/kg) 26%; (Table 6, mice, sequential, peptide IV 15 min after siRNA IV, TGN-L-siRNA-III 0.5 mg/kg, peptide 25 mg/kg) 34%.

For “TGN-S-S-SEQ ID NO: 1516 (L) (C(TGN)GLFAEIEELLEEGLENLIDWWNG; reading uncertain; listed as Homo sapiens)”, under “Table 6, mice, sequential, peptide IV 15 min after siRNA IV, TGN-L-siRNA-III 0.25 mg/kg, peptide 5 mg/kg”, the “In vivo mRNA knockdown (%)” value came to 14%. Regarding “TGN-S-S-SEQ ID NO: 1631 (D) ([dC](S‑S‑TGN)G[dL][dF]G[dH][dI][dH][dH][dL][dI][dH][dH]G[dL][dH][dN][dL][dI][dD][dW][dW][dN]G; reading uncertain; also: Cys disulfide-linked to TGN peptide; listed as Homo sapiens)”, the “In vivo mRNA knockdown (%)” value under setting [2] is on record as 17%.

With “TGN-S-S-SEQ ID NO: 1632 (D) ([dC](S‑S‑TGN)G[dL][dF]G[dE][dI][dH][dH][dL][dI][dH][dH]G[dL][dH][dN][dL][dI][dD][dW][dW][dN]G; reading uncertain; also: Cys disulfide-linked to TGN peptide; listed as Homo sapiens)”, the “In vivo mRNA knockdown (%)” value under setting [2] was determined as 36%. As to “TGN-S-S-SEQ ID NO: 1633 (D) ([dC](TGN)G[dL][dF]G[dE][dI][dH][dH][dL][dI][dH][dH]G[dL][dE][dN][dL][dI][dD][dW][dW][dN]G; reading uncertain; also: Cys disulfide-linked to TGN peptide; listed as Homo sapiens)”, under setting [2], the “In vivo mRNA knockdown (%)” value is on record as 55%.

On to “TGN-S-S-SEQ ID NO: 1634 (D) ([dC](TGN)G[dL][dF]G[dE][dI][dH][dE][dL][dI][dH][dH]G[dL][dE][dN][dL][dI][dD][dW][dW][dN]G; reading uncertain; also: Cys disulfide-linked to TGN peptide; listed as Homo sapiens)”, for which the “In vivo mRNA knockdown (%)” value under setting [2] is 17%.

As to “TGN-S-S-SEQ ID NO: 1643 (D) ([dC](TGN)G[dF][dF]G[dE][dI][dA][dE][dL][dI][dE][dE]G[dL][dK][dN][dL][dI][dD][dW]G[dN]G; reading uncertain; also: Cys disulfide-linked to TGN peptide; listed as Homo sapiens)”, under setting [2], the “In vivo mRNA knockdown (%)” value is 41%.

For the substance “TGN-S-S-SEQ ID NO: 1651 (D) ([dC](TGN)G[dL][dF][dE][dE][dI][dA][dE][dL][dI][dE][dE]G[dL][dE][dN][dL][dI][dD][dW]G[dN]G; reading uncertain; also: Cys disulfide-linked to TGN peptide; listed as Homo sapiens)”, the “In vivo mRNA knockdown (%)” value under setting [2] was 49%.
